Data set [1] addresses Amyloid-beta precursor protein (Homo sapiens) (UniProt P05067). As to the kind of experiment: Inhibition of self-induced amyloid beta 42 (unknown origin) aggregation at 20 uM incubated for 46 to 48 hrs by thioflavin-T fluorescence assay relative to control.
The test system of data set [2] is Mus musculus. As to the kind of experiment: Toxicity in ICR mouse assessed as emesis at 5 to 10 mg/kg, po administered for 10 consecutive days. The format is organism-based. The following applies: in vivo.
Data set [3] concerns the target Acetylcholinesterase (Electrophorus electricus, UniProt O42275). Nature of the data set: Inhibition of electric eel AChE using acetylthiocholine chloride as substrate incubated for 5 mins followed by substrate addition measured after 180 secs by Ellman's method.
For the next data set, the species on record is Homo sapiens. As to the kind of experiment: Selectivity index, ratio of IC50 for human serum BuChE to IC50 for human erythrocyte AChE.
The subject of data set [4] is Mus musculus. As to the kind of experiment: Toxicity in ICR mouse assessed as mouse survival at 5 to 10 mg/kg, po administered for 10 consecutive days. The format is organism-based. The following applies: in vivo.
Another data set deals with Cholinesterase (Homo sapiens, UniProt P06276). As to the kind of experiment: Inhibition of human serum BuChE at 100 uM using butyrylthiocholine iodide as substrate incubated for 5 mins followed by substrate addition measured after 180 secs by Ellman's method relative to control.
The subject of data set [5] is PC-12. As to the kind of experiment: Neuroprotective activity against H2O2-induced apoptosis in rat PC12 cells assessed as viable cells at 2.5 uM after 24 hrs by Annexin V-FITC/propidium iodide staining-based flow cytometry (reference value: 68.4%). The format is functional. The following applies: PC-12, 24 h, read-out: Activity.
Data set [6] deals with PC-12. Nature of the data set: Neuroprotective activity against H2O2-induced oxidative stress in rat PC12 cells assessed as increase in cell viability pretreated for 4 hrs followed by H2O2 challenge measured after 24 hrs by MTT assay. The format is functional, cell-based.
Data set [7] is described as follows: Antioxidant activity assessed as ABTS radical cation scavenging activity by measuring trolox equivalent antioxidant capacity measured at 6 mins. The format is functional.
For data set [8], the system named is Mus musculus. As to the kind of experiment: Acute toxicity in mouse assessed as abnormal changes in heart at 2000 mg/kg, po measured continuously for first 4 hrs and intermittently for next 24 hrs and occasionally for 14 days by hematoxylin and eosin staining based microscopic method. The format is organism-based. The following applies: in vivo.
Data set [9] concerns PC-12. As to the kind of experiment: Reversal of H2O2-induced calcium overload in rat PC12 cells assessed as mean fluorescence intensity at 10 uM after 48 hrs by Fluo-3/AM probe based flow cytometry (reference value: 454014). The format is functional.
The target in data set [10] is T1, Amine oxidase [flavin-containing] B (Homo sapiens, UniProt P27338).
T1 sequence (P27338 whole entry): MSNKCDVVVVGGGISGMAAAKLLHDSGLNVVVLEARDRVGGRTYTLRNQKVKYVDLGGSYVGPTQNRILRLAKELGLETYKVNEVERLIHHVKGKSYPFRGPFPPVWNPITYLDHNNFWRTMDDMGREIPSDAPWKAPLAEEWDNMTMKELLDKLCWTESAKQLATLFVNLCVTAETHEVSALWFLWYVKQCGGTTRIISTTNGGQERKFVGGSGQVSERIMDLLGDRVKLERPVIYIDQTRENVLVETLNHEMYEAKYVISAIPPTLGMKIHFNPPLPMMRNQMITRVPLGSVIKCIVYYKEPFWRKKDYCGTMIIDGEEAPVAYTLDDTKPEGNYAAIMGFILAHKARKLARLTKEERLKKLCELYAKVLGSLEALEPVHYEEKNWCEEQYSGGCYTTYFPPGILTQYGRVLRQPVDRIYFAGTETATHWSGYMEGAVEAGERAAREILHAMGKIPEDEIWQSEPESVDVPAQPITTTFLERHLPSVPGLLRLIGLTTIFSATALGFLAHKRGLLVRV
Nature of the data set: Inhibition of human MAO-B using p-tyramine as substrate incubated for 15 mins followed by substrate addition measured for 20 mins by fluorescence assay.

Data set [11] relates to PC-12. As to the kind of experiment: Neuroprotective activity against H2O2-induced apoptosis in rat PC12 cells assessed as necrotic cells at 5 uM after 24 hrs by Annexin V-FITC/propidium iodide staining-based flow cytometry (reference value: 4.9%). The format is functional.
Data set [12] concerns Mus musculus. Nature of the data set: Acute toxicity in mouse assessed as abnormal changes in brain at 2000 mg/kg, po measured continuously for first 4 hrs and intermittently for next 24 hrs and occasionally for 14 days by hematoxylin and eosin staining based microscopic method. The following applies: in vivo. The format is organism-based.
The subject of data set [13] is Mus musculus. As to the kind of experiment: Acute toxicity in mouse assessed as abnormal changes in liver at 2000 mg/kg, po measured continuously for first 4 hrs and intermittently for next 24 hrs and occasionally for 14 days by hematoxylin and eosin staining based microscopic method. The format is organism-based. The following applies: in vivo.
The target in data set [14] is Acetylcholinesterase (Homo sapiens, UniProt P22303). Nature of the data set: Inhibition of human erythrocyte AChE using acetylthiocholine chloride as substrate incubated for 5 mins followed by substrate addition measured after 180 secs by Ellman's method.
Data set [15] concerns Mus musculus. Nature of the data set: Reversal of scopolamine-induced memory impairment in ICR mouse assessed as increase in step-through latency time administered orally for 10 consecutive days and 60 mins prior to training trial followed by scopolamine challenge at 30 mins post dose measured 24 hrs after training trial by passive avoidance test. The format is functional, organism-based.

Data set [16] relates to Mus musculus. As to the kind of experiment: Toxicity in ICR mouse assessed as change in body weight at 5 to 10 mg/kg, po administered for 10 consecutive days. The format is organism-based. The following applies: in vivo.
In data set [17] the test system is PC-12. As to the kind of experiment: Neuroprotective activity against H2O2-induced apoptosis in rat PC12 cells assessed as viable cells at 5 uM after 24 hrs by Annexin V-FITC/propidium iodide staining-based flow cytometry (reference value: 68.4%). The following applies: PC-12, 24 h, read-out: Activity. The format is functional.
Data set [18] is described as follows: Antioxidant activity assessed as trolox equivalent of AAPH-induced radical scavenging activity preincubated for 15 mins followed by AAPH addition measured every minute for 120 mins by ORAC-FL based fluorescein assay. The format is functional.
A further data set has as its system BV-2. Nature of the data set: Antineuroinflammatory activity in mouse BV2 cells assessed as inhibition of LPS-induced NO production at 10 to 30 uM after 24 hrs by Griess assay. The format is functional, cell-based.
A short description of data set [19]: Antioxidant activity assessed as DPPH radical scavenging activity measured after 30 mins incubation in dark by UV-Visible spectrophotometric analysis. The format is functional.
Data set [20] deals with PC-12. As to the kind of experiment: Neuroprotective activity against H2O2-induced apoptosis in rat PC12 cells assessed as viable cells at 10 uM after 24 hrs by Annexin V-FITC/propidium iodide staining-based flow cytometry (reference value: 68.4%). The following applies: PC-12, 24 h, read-out: Activity. The format is functional.
Data set [21] relates to PC-12. As to the kind of experiment: Cytotoxicity against rat PC12 cells assessed as decrease in cell viability at 20 uM after 24 hrs by MTT assay. The format is cell-based. The following applies: pc-12, 24 h.

The source made the active and inactive calls. The calls are words filed in the database; no cut-off is given here.

Sequence of Cholinesterase (P06276 whole entry): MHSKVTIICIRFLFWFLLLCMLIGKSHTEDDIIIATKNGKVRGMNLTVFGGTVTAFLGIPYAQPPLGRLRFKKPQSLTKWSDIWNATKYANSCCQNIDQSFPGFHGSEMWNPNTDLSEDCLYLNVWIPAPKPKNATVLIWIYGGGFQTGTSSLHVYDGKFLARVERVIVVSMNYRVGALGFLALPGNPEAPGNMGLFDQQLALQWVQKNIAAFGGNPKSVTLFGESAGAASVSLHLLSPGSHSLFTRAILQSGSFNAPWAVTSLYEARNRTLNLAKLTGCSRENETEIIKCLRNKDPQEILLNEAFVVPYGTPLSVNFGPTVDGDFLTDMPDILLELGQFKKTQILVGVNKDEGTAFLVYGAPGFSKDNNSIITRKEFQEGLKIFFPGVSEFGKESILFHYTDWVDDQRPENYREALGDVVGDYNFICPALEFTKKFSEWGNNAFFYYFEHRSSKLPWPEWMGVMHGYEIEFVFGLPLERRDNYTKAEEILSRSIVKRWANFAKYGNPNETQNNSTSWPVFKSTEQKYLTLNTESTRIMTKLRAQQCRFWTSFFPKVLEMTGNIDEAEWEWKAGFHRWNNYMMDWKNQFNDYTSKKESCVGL
Sequence of Amyloid-beta precursor protein (Homo sapiens) (P05067 whole entry): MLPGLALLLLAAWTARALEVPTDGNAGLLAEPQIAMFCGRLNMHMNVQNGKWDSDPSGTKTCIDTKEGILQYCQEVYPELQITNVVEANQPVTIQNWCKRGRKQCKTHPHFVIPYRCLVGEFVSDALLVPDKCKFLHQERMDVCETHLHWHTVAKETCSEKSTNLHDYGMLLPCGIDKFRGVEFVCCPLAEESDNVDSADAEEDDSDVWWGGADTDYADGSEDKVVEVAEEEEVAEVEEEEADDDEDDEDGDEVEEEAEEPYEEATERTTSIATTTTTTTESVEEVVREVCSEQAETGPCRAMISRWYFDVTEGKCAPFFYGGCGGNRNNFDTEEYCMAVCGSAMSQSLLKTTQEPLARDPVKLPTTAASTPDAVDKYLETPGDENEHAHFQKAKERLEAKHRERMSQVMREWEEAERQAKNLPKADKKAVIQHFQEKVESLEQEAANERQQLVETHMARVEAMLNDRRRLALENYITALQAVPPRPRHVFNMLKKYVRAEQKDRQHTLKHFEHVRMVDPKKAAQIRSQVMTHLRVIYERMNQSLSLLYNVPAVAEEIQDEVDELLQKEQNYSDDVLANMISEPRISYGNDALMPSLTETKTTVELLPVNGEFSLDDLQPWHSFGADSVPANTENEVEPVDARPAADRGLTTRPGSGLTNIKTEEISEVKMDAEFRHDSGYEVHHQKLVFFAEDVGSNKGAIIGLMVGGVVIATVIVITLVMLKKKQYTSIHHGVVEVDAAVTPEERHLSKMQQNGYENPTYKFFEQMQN
Sequence of Acetylcholinesterase (Homo sapiens, UniProt P22303) (P22303 whole entry): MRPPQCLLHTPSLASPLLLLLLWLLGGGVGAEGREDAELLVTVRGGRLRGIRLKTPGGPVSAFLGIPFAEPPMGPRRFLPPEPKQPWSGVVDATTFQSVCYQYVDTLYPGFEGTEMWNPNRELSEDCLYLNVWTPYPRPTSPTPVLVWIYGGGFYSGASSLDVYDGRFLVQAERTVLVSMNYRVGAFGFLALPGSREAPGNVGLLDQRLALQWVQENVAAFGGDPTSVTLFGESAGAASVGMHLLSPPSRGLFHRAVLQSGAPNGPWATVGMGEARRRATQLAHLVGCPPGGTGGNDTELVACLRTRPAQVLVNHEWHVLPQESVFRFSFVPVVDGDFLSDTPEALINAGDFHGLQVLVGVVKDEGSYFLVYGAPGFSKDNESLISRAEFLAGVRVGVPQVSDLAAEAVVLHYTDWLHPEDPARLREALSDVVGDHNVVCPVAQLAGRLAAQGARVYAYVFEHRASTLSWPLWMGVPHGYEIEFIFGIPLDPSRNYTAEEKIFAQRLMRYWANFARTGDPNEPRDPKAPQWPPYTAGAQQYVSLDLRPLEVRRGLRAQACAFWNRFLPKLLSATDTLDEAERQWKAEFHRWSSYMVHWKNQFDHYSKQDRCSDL
Sequence of Acetylcholinesterase (Electrophorus electricus, UniProt O42275) (O42275 whole entry): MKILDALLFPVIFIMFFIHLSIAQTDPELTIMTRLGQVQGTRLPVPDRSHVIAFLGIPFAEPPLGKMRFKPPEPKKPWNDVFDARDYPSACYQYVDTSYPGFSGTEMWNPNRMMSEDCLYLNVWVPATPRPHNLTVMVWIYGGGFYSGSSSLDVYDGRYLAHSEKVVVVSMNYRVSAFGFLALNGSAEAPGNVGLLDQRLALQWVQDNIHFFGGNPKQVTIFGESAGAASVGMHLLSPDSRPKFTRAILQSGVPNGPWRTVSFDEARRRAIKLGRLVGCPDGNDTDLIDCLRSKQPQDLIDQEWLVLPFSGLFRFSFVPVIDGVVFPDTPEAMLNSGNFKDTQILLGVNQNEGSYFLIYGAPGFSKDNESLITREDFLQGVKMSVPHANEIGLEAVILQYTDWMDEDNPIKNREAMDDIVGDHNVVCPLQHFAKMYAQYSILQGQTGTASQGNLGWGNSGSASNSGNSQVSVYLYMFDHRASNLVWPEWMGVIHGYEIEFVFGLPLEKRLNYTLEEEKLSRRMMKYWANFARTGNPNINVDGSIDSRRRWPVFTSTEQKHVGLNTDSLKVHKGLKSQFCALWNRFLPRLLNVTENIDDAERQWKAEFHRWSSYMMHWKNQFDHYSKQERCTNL

As to `CC(C)(C)c1cc(/C=C/C(=O)NCCC2CCN(Cc3ccccc3F)CC2)cc(C(C)(C)C)c1O`, the inhibition is 43.5 to 56.7% in data set [1] and 38.4% on Cholinesterase. Also, the Activity entry in the data set on Mus musculus [2] was “Non-Toxic”; in the data set with Mus musculus [4] it was “Non-Toxic”; in the data set on PC-12 [6] it was “Dose-dependent effect”; in the data set with Mus musculus [8], “Non-Toxic”; in the data set on PC-12 [11], 2.5%; in the data set on Mus musculus [12] it was “Non-Toxic”. In addition, the Activity result in the data set on Mus musculus [13] was “Non-Toxic”; in the data set with Mus musculus [15], “Dose-dependent effect”; in the data set on Mus musculus [16] it was “Non-Toxic”; in the data set on PC-12 [21] it was “Non-Toxic”. Further, the IC50 against Acetylcholinesterase [3] was 0.075 µM; in [10], 7.4 µM; on Acetylcholinesterase [14], 0.75 µM; in data set [19], 55.9 µM. Moreover, the Ratio IC50 in the data set listed under Homo sapiens is above 133. Besides, the viability at 2.5 µM in the data set on PC-12 [5] amounted to 81.5%. Moreover, the Activity (mmolequiv/mmol) in data set [7] is 0.82; in [18], 1.64. Also, the Flu intensity in the data set on PC-12 [9] is 157903. Besides, the viability at 5 µM with PC-12 [17] was 88.3%. Moreover, in the data set with BV-2, the inhibition entry is “Active”. Further, in the data set with PC-12 [20], the viability at 10 µM worked out at 92.4%.

The record behind these values is ChEMBL document CHEMBL4270597, “Donepezil-butylated hydroxytoluene (BHT) hybrids as Anti-Alzheimer's disease agents with cholinergic, antioxidant, and neuroprotective properties” (Eur J Med Chem, 2018).
